Where only a bound is given, the exact number is not on record here.

In one experiment the target is T1, mTRPA1 (Mus musculus, UniProt Q8BLA8).
T1 construct: expressed in transfected cells
Briefly: IonWorks Barracuda (IWB) automated patch clamp, TRPA1 inhibitory activity. It counts as cell-based. Particulars: HEK293 cells stably expressing mTRPA1, current induced by AITC, amplitude at +100 mV; read-out: IC50 (inhibition activity on TRPA1). How it is done:
In this example, the inhibitory activity of the compounds prepared in some examples of the present invention on transient receptor potential channel protein ankyrin 1 (TRPA1) was tested. Among them, compound of formula A (WO2010075353) was used as the positive control compound: […]
Test method using IonWorks Barracuda (IWB) automated patch clamp detection: HEK293 cells stably expressing mTRPA1 were placed in the T175 culture flask with DMEM medium containing 15 µg/mL Blasticidin S HCl, 200 µg/mL Hygromycin B and 10% FBS, and cultured in 37° C., 5% CO2 incubator. When the cell density reached about 80%, the culture medium was removed, washed once with phosphate buffered saline (PBS) without calcium and magnesium. 3 mL of Trypsin was added to digest for 2 min, 7 mL of culture solution was added to terminate the digestion. The cells were collected to 15 mL centrifuge tube and centrifuged at 800 rpm for 3 min. After the supernatant was removed, the cells were added to appropriate volume of extracellular fluid for re-suspending, and the cell density was controlled at 2-3×10^6/mL for use in IWB experiment. Extracellular fluid formulation (in mM): 140 NaCl, 5 KCl, 1 MgCl2, 10 HEPES, 0.5 EGTA, 10 Glucose (pH 7.4); intracellular fluid formulation (in mM): 140 CsCl, 10 HEPES, 5 EGTA, 0.1 CaCl2, 1 MgCl2 (pH 7.2). 28 mg/mL of amphotericin B was freshly prepared with DMSO on the day of experiment, and then final concentration of 0.1 mg/mL was prepared with intracellular fluid.
Population patch clamp (PPC) plate was used in IWB experiment. The entire detection process was automatically carried out by the instrument, that is, extracellular fluid was added into 384 wells of PPC plate, and after intracellular fluid was added under PPC plate (in plenum), 6 µL of cell fluid was added for sealing test, and finally the intracellular fluid in plenum was replaced with intracellular fluid containing amphotericin B to establish a whole-cell recording mode after perforating sealed cells. The sampling frequency for recording TPRA1 current was 10 kHz, the cells were clamped at 0 mV, the voltage stimulation command (channel protocol) was a ramp voltage from −100 mV to +100 mV for 300 ms. This voltage stimulation was applied every 10 s, mTRPA1 current was induced by 300 µM AITC.
Data recording and current amplitude measurement export were carried out by IWB software (version 2.5.3, Molecular Devices Corporation, Union City, CA). No statistics was recorded for holes with sealing impedance lower than 20 MΩ. The original current data was corrected by software for leak subtraction. TRPA1 current amplitude was measured at +100 mV. […] If IC50 value of HC030031 exceeded 3 times of the average IC50 value previously obtained on each plate, it would be re-tested. The dose-effect curve of compounds and IC50 were fitted and calculated by GraphPad Prism 5.02 (GraphPad Software, San Diego, CA).
Some compounds of the present invention were subjected to IC50 inhibition activity test using the IonWorks Barracuda (IWB) automated patch clamp detection method.

A further experiment concerns the target T2, chemokine receptor CCR9 (Homo sapiens, UniProt P51686).
T2 construct: expressed in transfected cells
T2 sequence (P51686 1-369): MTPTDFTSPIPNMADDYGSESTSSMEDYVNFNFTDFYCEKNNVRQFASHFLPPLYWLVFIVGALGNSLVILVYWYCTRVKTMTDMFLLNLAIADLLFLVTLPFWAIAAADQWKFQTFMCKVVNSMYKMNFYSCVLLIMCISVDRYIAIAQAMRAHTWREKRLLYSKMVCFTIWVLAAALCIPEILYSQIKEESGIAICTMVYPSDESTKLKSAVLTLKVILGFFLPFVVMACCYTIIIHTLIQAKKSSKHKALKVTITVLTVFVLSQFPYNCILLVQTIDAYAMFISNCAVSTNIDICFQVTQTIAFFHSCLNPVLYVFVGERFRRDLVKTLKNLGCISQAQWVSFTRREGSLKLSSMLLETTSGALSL
Briefly: CCR9 antagonistic activity, calcium flow (Fluo-4, FlexStation), CCL25 agonist. It counts as cell-based. Particulars: antagonistic mode, CCL25 150 nM; for inhibition at 100 µM: read-out: Inhibition rate (%) (100 μM). From the text: 2.1 Main reagents: DMEM culture medium (GIBCO); dimethyl sulfoxide (Sigma); FLUO-4, AM (Invitrogen) 2.2 Main instrument: Flexstation-3 (Molecular Devices) The test concentration gradient of the compound and replicates were set according to the requirement of testing ICSO. All test substances with 8 concentrations were set, with 3 replicates for each concentration. By establishing a cell line that cotransformed the receptor and G16, the receptor being activated can induce the activation of Gα16 protein, thereby activating phospholipase C (PLC) to produce IP3 and DAG. IP3 can bind to the IP3 receptor on the intracellular endoplasmic reticulum and mitochondria, leading to the release of intracellular calcium. Therefore, measuring changes in intracellular calcium can serve as a method for detecting the activation status of target receptor. Fluo-4/AM is a calcium fluorescent probe indicator used to measure calcium ion, as a non-polar lipophilic compound, under the action of cell lipase after entering cells, the AM group dissociates and releases Fluo-4; since Fluo-4 is a polar molecule, it is not easy to pass through lipid bilayers, allowing it to remain in the cell for a long time. Ultimately, the level of G protein activation can be reflected by measuring the excited fluorescence intensity. […] Cells stably expressing the target receptor/Ga16 were planted on a 96 well plate and cultured overnight. 2. The culture solution was removed from the well planted cells, then 40 μL/well of freshly prepared dye was added. The mixture was incubated at a constant temperature in a 37° C. incubator for 40 minutes. 3. The drug to be tested was diluted with calcium buffer and mixed well. 4. The dye was absorbed and discarded. After washed once with freshly prepared calcium buffer, 50 μL of calcium buffer that dissolved the drug to be tested was added for replacement. 5. The FlexStation II instrument was used for detection. Starting from the 15th second, […] dissolved with known agonist was automatically added by the instrument, and finally the fluorescence value at 525 nm was readed. The following formula was used to calculate the cell response rate (% Response) for each sample under each concentration. […] IC50 value was calculated using GraphPad Prism.

T1 sequence (Q8BLA8 whole entry): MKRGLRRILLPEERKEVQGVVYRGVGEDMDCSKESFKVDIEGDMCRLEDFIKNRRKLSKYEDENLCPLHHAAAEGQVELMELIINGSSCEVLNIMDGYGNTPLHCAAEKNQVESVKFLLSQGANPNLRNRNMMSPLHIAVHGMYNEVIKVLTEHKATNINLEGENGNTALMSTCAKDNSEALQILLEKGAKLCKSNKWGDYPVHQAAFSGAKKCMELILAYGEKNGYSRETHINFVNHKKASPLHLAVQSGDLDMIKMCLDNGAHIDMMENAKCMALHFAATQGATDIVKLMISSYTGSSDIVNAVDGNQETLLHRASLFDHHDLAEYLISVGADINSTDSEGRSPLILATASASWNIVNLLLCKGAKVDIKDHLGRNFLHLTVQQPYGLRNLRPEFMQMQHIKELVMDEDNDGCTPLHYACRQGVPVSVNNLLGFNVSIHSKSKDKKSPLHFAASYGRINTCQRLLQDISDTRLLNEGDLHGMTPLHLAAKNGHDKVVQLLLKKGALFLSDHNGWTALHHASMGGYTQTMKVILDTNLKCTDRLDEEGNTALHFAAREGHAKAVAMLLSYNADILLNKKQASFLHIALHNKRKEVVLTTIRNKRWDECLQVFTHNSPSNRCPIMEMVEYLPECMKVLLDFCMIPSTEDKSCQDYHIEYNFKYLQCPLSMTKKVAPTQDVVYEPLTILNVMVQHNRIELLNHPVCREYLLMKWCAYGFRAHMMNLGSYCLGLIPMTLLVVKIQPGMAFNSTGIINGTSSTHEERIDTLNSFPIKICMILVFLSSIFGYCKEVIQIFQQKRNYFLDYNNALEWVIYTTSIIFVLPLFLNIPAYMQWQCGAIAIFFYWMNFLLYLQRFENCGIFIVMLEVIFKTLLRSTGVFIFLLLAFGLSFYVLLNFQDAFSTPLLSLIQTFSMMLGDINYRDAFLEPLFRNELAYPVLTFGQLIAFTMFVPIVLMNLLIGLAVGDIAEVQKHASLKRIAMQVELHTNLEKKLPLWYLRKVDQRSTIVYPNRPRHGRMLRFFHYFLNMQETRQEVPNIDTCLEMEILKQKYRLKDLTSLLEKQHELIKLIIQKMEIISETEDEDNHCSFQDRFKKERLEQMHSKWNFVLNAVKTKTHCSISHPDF

On to `CNCc1ccc(-c2ccco2)c(NS(=O)(=O)c2ccc(F)cc2)c1` [IA-1, 4-Fluoro-N-(2-(furan-2-yl)-5-((methylamino)methyl)phenyl)benzenesulfonamide], for which the IC50 on mTRPA1 was 1 to 5 µM. Also, at chemokine receptor CCR9, the inhibition at 100 µM stood at 14% and the IC50 is more than 100 µM.

Consider `CNCc1ccc(-c2ccco2)c(NS(=O)(=O)c2ccccc2OC)c1` [IA-5, 2-Methoxy-N-(2-(furan-2-yl)-5-((methylamino)methyl)phenyl)benzenesulfonamide], for which, at mTRPA1, the IC50 lay in the range of 1 to 5 µM. Besides, at chemokine receptor CCR9, the inhibition at 100 µM is 0% and the IC50 is more than 100 µM.

As to `CNCc1ccc(-c2ccco2)c(NS(=O)(=O)c2ccc(F)cc2F)c1` [IA-11, 2,4-Difluoro-N-(2-(furan-2-yl)-5-((methylamino)methyl)phenyl)benzenesulfonamide], at mTRPA1, the concentration for half-maximal inhibition (IC50) was in the range of 1 to 5 µM. At chemokine receptor CCR9, the inhibition at 100 µM is 5% and the IC50 was more than 100 µM.

As for `CNCc1ccc(-c2ccco2)c(NS(=O)(=O)c2ccc3c(c2)CCO3)c1` [IA-15, N-(2-(furan-2-yl)-5-((methylamino)methyl)phenyl)-2,3-dihydrobenzofuran-5-sulfonamide], the IC50 at mTRPA1 lay within 1 to 5 µM. For the same molecule, at chemokine receptor CCR9, the inhibition at 100 µM was 0% and the half-inhibitory concentration (IC50) is more than 100 µM.

For the molecule `CNCc1ccc(-c2ccco2)c(NS(=O)(=O)c2ccsc2)c1` [IA-21, N-(2-(furan-2-yl)-5-((methylamino)methyl)phenyl)thiophene-3-sulfonamide], the 50% inhibitory concentration (IC50) at mTRPA1 was 1 to 5 µM. At chemokine receptor CCR9, the inhibition at 100 µM is 25% and the IC50 was more than 100 µM.

Take `O=S(=O)(Nc1ccc(CNC2CC2)cc1-c1ccco1)c1ccsc1` [IA-33, N-(4-((cyclopropylamino)methyl)-2-(furan-2-yl)phenyl)thiophene-3-sulfonamide]: at mTRPA1, the IC50 lay in the range of 1 to 5 µM. In addition, at chemokine receptor CCR9, the inhibition at 100 µM stood at 10% and the IC50 was more than 100 µM.

As to `CNCc1ccc(-c2ccc(C)o2)c(NS(=O)(=O)c2ccccc2)c1` [IA-35, N-(5-((methylamino)methyl)-2-(5-methylfuran-2-yl)phenyl)benzenesulfonamide], on mTRPA1, the IC50 fell in the range of 1 to 5 µM. On chemokine receptor CCR9, the inhibition at 100 µM is 35% and the half-inhibitory concentration (IC50) was more than 100 µM.

Consider `CNCc1ccc(-c2ccoc2)c(NS(=O)(=O)c2ccsc2)c1` [IA-43, N-(2-(furan-3-yl)-5-((methylamino)methyl)phenyl)thiophene-3-sulfonamide], for which the IC50 on mTRPA1 fell in the range of 1 to 5 µM. Further, on chemokine receptor CCR9, the inhibition at 100 µM is 22% and the IC50 was more than 100 µM.

As to `CNCc1ccc(-c2ccoc2)c(NS(=O)(=O)c2cccs2)c1` [IA-44, N-(2-(furan-3-yl)-5-((methylamino)methyl)phenyl)thiophene-2-sulfonamide], the half-maximal inhibitory concentration (IC50) at mTRPA1 is 1 to 5 µM. On chemokine receptor CCR9, the inhibition at 100 µM worked out at 12% and the IC50 is more than 100 µM.

For the molecule `CNCc1ccc(-c2cccs2)c(NS(=O)(=O)c2ccc(F)cc2)c1` [IA-45, 4-Fluoro-N-(5-((methylamino)methyl)-2-(thiophene-2-yl)phenyl)benzenesulfonamide], the IC50 on mTRPA1 was 1 to 5 µM. For the same molecule, at chemokine receptor CCR9, the inhibition at 100 µM was found to be 30% and the 50% inhibitory concentration (IC50) was more than 100 µM.

As to `CNCCc1ccc(NS(=O)(=O)c2ccsc2)c(-c2ccco2)c1` [IS, N-(2-(furan-2-yl)-4-(2-(methylamino)ethyl)phenyl)thiophene-3-sulfonamide], on mTRPA1, the 50% inhibitory concentration (IC50) was in the range of 1 to 5 µM.

Take `CC(N)c1ccc(N(C)S(=O)(=O)c2ccccc2)c(-c2ccco2)c1` (stereo not shown) [IU-1]: on mTRPA1, the IC50 is 1 to 5 µM.

On to `CC(N)c1ccc(NS(=O)(=O)c2ccccc2)c(-c2ccco2)c1` (stereo not shown) [IU-2, N-(4-(1-aminoethyl)-2-(furan-2-yl)phenyl)benzenesulfonamide], for which the half-inhibitory concentration (IC50) at mTRPA1 is 1 to 5 µM.

Take `CCC(N)c1ccc(NS(=O)(=O)c2ccccc2)c(-c2ccco2)c1` (stereo not shown) [IU-3, N-(4-(1-aminopropyl)-2-(furan-2-yl)phenyl)benzenesulfonamide]: the 50% inhibitory concentration (IC50) at mTRPA1 is less than 1 µM.

For the molecule `CCCC(N)c1ccc(NS(=O)(=O)c2ccccc2)c(-c2ccco2)c1` (stereo not shown) [IU-4, N-(4-(1-aminobutyl)-2-(furan-2-yl)phenyl)benzenesulfonamide], at mTRPA1, the IC50 was less than 1 µM.

Regarding `CC(C)C(N)c1ccc(NS(=O)(=O)c2ccccc2)c(-c2ccco2)c1` (stereo not shown) [IU-5, N-(4-(1-amino-2-methylpropyl)-2-(furan-2-yl)phenyl)benzenesulfonamide], the 50% inhibitory concentration (IC50) on mTRPA1 is less than 1 µM.

Regarding `NC(c1ccc(NS(=O)(=O)c2ccccc2)c(-c2ccco2)c1)C1CC1` (stereo not shown) [IU-6, N-(4-(amino(cyclopropyl)methyl)-2-(furan-2-yl)phenyl)benzenesulfonamide], the IC50 at mTRPA1 was less than 1 µM.

For the molecule `NC(c1ccccc1)c1ccc(NS(=O)(=O)c2ccccc2)c(-c2ccco2)c1` (stereo not shown) [IU-7, N-(4-(amino(phenyl)methyl)-2-(furan-2-yl)phenyl)benzenesulfonamide], on mTRPA1, the IC50 lay within 1 to 5 µM.

For the molecule `NC(Cc1ccccc1)c1ccc(NS(=O)(=O)c2ccccc2)c(-c2ccco2)c1` (stereo not shown) [IU-8, N-(4-(1-amino-2-phenylethyl)-2-(furan-2-yl)phenyl)benzenesulfonamide], the IC50 on mTRPA1 lay in the range of 10 to 20 µM.

`CC(N)c1ccc(-c2ccco2)c(NS(=O)(=O)c2ccccc2)c1` (stereo not shown) [IU-9, N-(5-(1-aminoethyl)-2-(furan-2-yl)phenyl)benzenesulfonamide]: the IC50 on mTRPA1 was less than 1 µM.

Regarding `CNC(C)c1ccc(NS(=O)(=O)c2ccccc2)c(-c2ccco2)c1` (stereo not shown) [IV-1, N-(2-(furan-2-yl)-4-(1-(methylamino)ethyl)phenyl)benzenesulfonamide], the IC50 at mTRPA1 lay within 1 to 5 µM.

With `CNC(C)c1ccc(-c2ccco2)c(NS(=O)(=O)c2ccccc2)c1` (stereo not shown) [IV-2, N-(2-(furan-2-yl)-5-(1-(methylamino)ethyl)phenyl)benzenesulfonamide], the IC50 on mTRPA1 is 1 to 5 µM.

Regarding `O=S(=O)(Nc1cc(C2CCCN2)ccc1-c1ccco1)c1ccccc1` (stereo not shown) [IW, N-(2-(furan-2-yl)-5-(pyrrolidin-2-yl)phenyl)benzenesulfonamide], the IC50 on mTRPA1 was in the range of 1 to 5 µM.

For the origin of these results see US20240262812A1, “N-SUBSTITUTED PHENYLSULFONAMIDE COMPOUND AND USE THEREOF” (Shanghai Leado Pharmatech Co., Ltd., priority 2021, published 2024).
